{"source": "patent US9958439B2", "about": "“Carbohydrate detection” (RICHTER LIFE SCIENCE DEVELOPMENT AB, priority 2012, dated 2018)", "key": {"[1]": {"details": "for RFU change (Correlation analysis): probe-specific excitation λ, emission 545 nm; for Gradient Parameters (gradient of regression line) / Linear relationship / Quality of Gradient: linear regression", "how_it_was_run": "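LCO probes at 3 μM mixed with serial twofold carbohydrate dilutions in dH2O (10–0.039 or 5–0.019 mg/ml, depending on carbohydrate). Excitation scanned 300–500 nm, emission read at 545 nm; detection defined as reproducible shift in λmax and/or RFU relative to negative control, with linear regression of RFU against concentration.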"}, "[2]": {"how_it_was_run": "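3 μM of each LCO probe was added to serial two-fold carbohydrate dilutions in water (10–0.039 or 5–0.019 mg/ml). Excitation spectra were scanned 300–500 nm with emission at 545 nm, in triplicate. Detection was defined as a reproducible shift in λmax and/or RFU versus negative control, with linear regression of RFU against concentration.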"}, "[3]": {"details": "for RFU change (Correlation analysis): probe-specific excitation λ, emission 545 nm", "how_it_was_run": "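Each LCO probe at 3 μM was added to two-fold serial dilutions of carbohydrate in dH2O (10–0.039 mg/ml for β-1,3-glucan, cellulose, chitin; 5–0.019 mg/ml for the others), run in triplicate. Excitation spectra were scanned 300–500 nm with emission at 545 nm. Detection was a reproducible λmax and/or RFU shift versus negative control, with linear regression of RFU against concentration.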"}, "[4]": {"details": "for RFU change (Correlation analysis): probe-specific excitation λ, emission 545 nm", "how_it_was_run": "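LCO probes at 3 μM mixed with serial two-fold dilutions of carbohydrate in dH2O (10–0.039 or 5–0.019 mg/ml, depending on carbohydrate), in triplicate. Excitation scanned 300–500 nm or fixed per probe (λmax or lowest background), emission at 545 nm. Detection taken as reproducible λmax/RFU shift vs no-carbohydrate control; RFU regressed linearly on concentration.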", "remark": "listed apart in the source"}, "[5]": {"how_it_was_run": "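LCO probes (3 μM) were added to serial two-fold dilutions of carbohydrate suspensions in dH2O, with excitation scanned 300–500 nm and emission at 545 nm. Detection was a reproducible λmax and/or RFU change versus no-carbohydrate control. RFU was regressed linearly against concentration at the λmax or the lowest-background excitation.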", "remark": "listed apart in the source"}, "[6]": {"how_it_was_run": "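LCO probes at 3 μM mixed with serial two-fold carbohydrate dilutions in water (10–0.039 or 5–0.019 mg/ml), run in triplicate. Excitation scanned 300–500 nm with emission at 545 nm; detection based on reproducible λmax or RFU shift against the no-carbohydrate control, with linear regression of RFU on concentration.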", "remark": "listed apart in the source"}, "[7]": {"details": "Glycogen 5-0.019 mg/ml, 3 μM probe, spectral analysis, Excitation 300-500, Emission 545"}, "[8]": {"details": "Chondroitin Sulfate A 5-0.019 mg/ml, 3 μM probe, spectral analysis, Excitation 300-500, Emission 545"}, "[9]": {"details": "Chondroitin Sulfate A concentration vs RFU, linear regression"}, "[10]": {"details": "Chitin 10-[…], 3 μM probe, spectral analysis, Excitation 300-500, Emission 545"}, "[11]": {"details": "cellulose concentration vs RFU, linear regression"}, "[12]": {"details": "chitin concentration vs RFU, linear regression"}, "[13]": {"details": "β-1,3-glucan concentration vs RFU, linear regression"}, "[14]": {"details": "Cellulobiose 5-0.019 mg/ml, 3 μM probe, spectral analysis, Excitation 300-500, Emission 545"}, "[15]": {"details": "amylose concentration vs RFU, linear regression"}, "[16]": {"details": "cellulobiose concentration vs RFU, linear regression"}, "[17]": {"details": "sodium alginate concentration vs RFU, linear regression"}, "[18]": {"details": "glucose concentration vs RFU, linear regression"}}, "note": "Read-outs that look alike come from different tables or passages of the source.", "data": [{"smiles": "O=C(Cc1cc(-c2cccs2)sc1-c1ccc(-c2sc(-c3cccs3)cc2CC(=O)N[C@@H](Cc2ccc([O-])cc2)C(=O)[O-])s1)N[C@@H](Cc1ccc([O-])cc1)C(=O)[O-].[Na+].[Na+].[Na+].[Na+]", "note": "[pHTA-Tyr, penta Hydrogen Thiophene Acetic acid Tyrosine]", "values": [{"measurement": "RFU change (Correlation analysis)", "setting": "[1]; Glycogen 5-0.019 mg/ml, 3 μM probe", "value": "Decreases"}, {"measurement": "RFU change (Signal deviation with increasing [Carbohydrate])", "setting": "[1]; [7]", "value": "Decreases"}, {"measurement": "λmax change", "setting": "[1]; [7]", "value": "Redshift"}, {"measurement": "carbohydrate can be detected and/or differentiated by the LCO", "setting": "[1]; Glycogen, conclusion from change in signal magnitude and/or shift in λmax", "value": "can be detected and/or differentiated"}, {"measurement": "RFU change (Correlation analysis)", "setting": "[1]; Heparin 5-0.019 mg/ml, 3 μM probe", "value": "Increases"}, {"measurement": "RFU change (Signal deviation with increasing [Carbohydrate])", "setting": "[1]; Heparin 5-0.019 mg/ml, 3 μM probe, spectral analysis, Excitation 300-500, Emission 545", "value": "Increases"}, {"measurement": "Gradient Parameters (gradient of regression line)", "setting": "[1]; glycogen concentration vs RFU", "value": "−2062 ± 216.6"}, {"measurement": "Linear relationship", "setting": "[1]; glycogen concentration vs RFU", "value": "Significant"}, {"measurement": "Quality of Gradient", "setting": "[1]; glycogen concentration vs RFU", "value": "Negative"}, {"measurement": "Gradient Parameters (gradient of regression line)", "setting": "[1]; heparin concentration vs RFU", "value": "74.5 ± 80.7"}, {"measurement": "Linear relationship", "setting": "[1]; heparin concentration vs RFU", "value": "Not Significant"}, {"measurement": "Quality of Gradient", "setting": "[1]; heparin concentration vs RFU", "value": "Horizontal"}, {"measurement": "Sensitivity", "setting": "[1]; to glycogen", "value": "Yes"}, {"measurement": "Sensitivity", "setting": "[1]; to heparin", "value": "No"}, {"measurement": "RFU change (Correlation analysis)", "setting": "[2]; Chondroitin Sulfate A 5-0.019 mg/ml, 3 μM probe, probe-specific excitation λ, emission 545 nm", "value": "Increases"}, {"measurement": "RFU change (Signal deviation with increasing [Carbohydrate])", "setting": "[2]; [8]", "value": "Increases"}, {"measurement": "λmax change", "setting": "[2]; [8]", "value": "No change"}, {"measurement": "Gradient Parameters (gradient of regression line)", "setting": "[2]; [9]", "value": "163.3 ± 61.5"}, {"measurement": "Linear relationship", "setting": "[2]; [9]", "value": "Significant"}, {"measurement": "Quality of Gradient", "setting": "[2]; [9]", "value": "Positive"}, {"measurement": "carbohydrate can be detected and/or differentiated by the LCO", "setting": "[2]; Chondroitin sulfate A, conclusion from change in signal magnitude and/or shift in λmax", "value": "can be detected and/or differentiated"}, {"measurement": "Sensitivity", "setting": "[2]; to Chondroitin Sulfate A", "value": "Yes"}, {"measurement": "RFU change (Correlation analysis)", "setting": "[3]; Cellulose 10-[…], 3 μM probe", "value": "Unclear"}, {"measurement": "RFU change (Signal deviation with increasing [Carbohydrate])", "setting": "[3]; Cellulose 10-[…], 3 μM probe, spectral analysis, Excitation 300-500, Emission 545", "value": "Unclear"}, {"measurement": "RFU change (Correlation analysis)", "setting": "[3]; Chitin 10-[…], 3 μM probe", "value": "Increases"}, {"measurement": "RFU change (Signal deviation with increasing [Carbohydrate])", "setting": "[3]; [10]", "value": "Increases"}, {"measurement": "λmax change", "setting": "[3]; [10]", "value": "Redshift"}, {"measurement": "carbohydrate can be detected and/or differentiated by the LCO", "setting": "[3]; Chitin, conclusion from change in signal magnitude and/or shift in λmax", "value": "can be detected and/or differentiated"}, {"measurement": "Gradient Parameters (gradient of regression line)", "setting": "[3]; [11]", "value": "−51.4 ± 45.0"}, {"measurement": "Quality of Gradient", "setting": "[3]; [11]", "value": "Horizontal"}, {"measurement": "Gradient Parameters (gradient of regression line)", "setting": "[3]; [12]", "value": "972.3 ± 109.7"}, {"measurement": "Linear relationship", "setting": "[3]; [12]", "value": "Significant"}, {"measurement": "Quality of Gradient", "setting": "[3]; [12]", "value": "Positive"}, {"measurement": "Sensitivity", "setting": "[3]; to cellulose", "value": "No"}, {"measurement": "Sensitivity", "setting": "[3]; to chitin", "value": "Yes"}, {"measurement": "Sensitivity", "setting": "[3]; to β-1,3-glucan", "value": "No"}, {"measurement": "RFU change (Correlation analysis)", "setting": "[3]; β-1,3-glucan 10-[…], 3 μM probe", "value": "Decrease"}, {"measurement": "RFU change (Signal deviation with increasing [Carbohydrate])", "setting": "[3]; β-1,3-glucan 10-[…], 3 μM probe, spectral analysis, Excitation 300-500, Emission 545", "value": "Decrease"}, {"measurement": "Gradient Parameters (gradient of regression line)", "setting": "[3]; [13]", "value": "−53.2 ± 47.5"}, {"measurement": "Quality of Gradient", "setting": "[3]; [13]", "value": "Horizontal"}, {"measurement": "RFU change (Correlation analysis)", "setting": "[4]; Amylose 5-0.019 mg/ml, 3 μM probe", "value": "Unclear"}, {"measurement": "RFU change (Signal deviation with increasing [Carbohydrate])", "setting": "[4]; Amylose 5-0.019 mg/ml, 3 μM probe, spectral analysis, Excitation 300-500, Emission 545", "value": "Unclear"}, {"measurement": "RFU change (Correlation analysis)", "setting": "[4]; Cellulobiose 5-0.019 mg/ml, 3 μM probe", "value": "Increases"}, {"measurement": "RFU change (Signal deviation with increasing [Carbohydrate])", "setting": "[4]; [14]", "value": "Increases"}, {"measurement": "λmax change", "setting": "[4]; [14]", "value": "No change"}, {"measurement": "carbohydrate can be detected and/or differentiated by the LCO", "setting": "[4]; Cellulobiose, conclusion from change in signal magnitude and/or shift in λmax", "value": "can be detected and/or differentiated"}, {"measurement": "Gradient Parameters (gradient of regression line)", "setting": "[4]; [15]", "value": "−133.1 ± 128.5"}, {"measurement": "Quality of Gradient", "setting": "[4]; [15]", "value": "Horizontal"}, {"measurement": "Gradient Parameters (gradient of regression line)", "setting": "[4]; [16]", "value": "56.7 ± 16"}, {"measurement": "Linear relationship", "setting": "[4]; [16]", "value": "Significant"}, {"measurement": "Quality of Gradient", "setting": "[4]; [16]", "value": "Positive"}, {"measurement": "Sensitivity", "setting": "[4]; to amylose", "value": "No"}, {"measurement": "Sensitivity", "setting": "[4]; to cellulobiose", "value": "Yes"}, {"measurement": "RFU change (Correlation analysis)", "setting": "[5]; Sodium alginate 5-0.019 mg/ml, 3 μM probe, probe-specific excitation λ, emission 545 nm", "value": "Unclear"}, {"measurement": "RFU change (Signal deviation with increasing [Carbohydrate])", "setting": "[5]; Sodium alginate 5-0.019 mg/ml, 3 μM probe, spectral analysis, Excitation 300-500, Emission 545", "value": "Increases"}, {"measurement": "Gradient Parameters (gradient of regression line)", "setting": "[5]; [17]", "value": "30.9 ± 175.5"}, {"measurement": "Quality of Gradient", "setting": "[5]; [17]", "value": "Horizontal"}, {"measurement": "Sensitivity", "setting": "[5]; to sodium alginate", "value": "No"}, {"measurement": "RFU change (Correlation analysis)", "setting": "[6]; Glucose 5-0.019 mg/ml, 3 μM probe, probe-specific excitation λ, emission 545 nm", "value": "Increases"}, {"measurement": "RFU change (Signal deviation with increasing [Carbohydrate])", "setting": "[6]; Glucose 5-0.019 mg/ml, 3 μM probe, spectral analysis, Excitation 300-500, Emission 545", "value": "Increases"}, {"measurement": "carbohydrate can be detected and/or differentiated by the LCO", "setting": "[6]; Glucose, conclusion from change in signal magnitude and/or shift in λmax", "value": "can be detected and/or differentiated"}, {"measurement": "Gradient Parameters (gradient of regression line)", "setting": "[6]; [18]", "value": "799.4 ± 95.1"}, {"measurement": "Linear relationship", "setting": "[6]; [18]", "value": "Significant"}, {"measurement": "Quality of Gradient", "setting": "[6]; [18]", "value": "Positive"}, {"measurement": "Sensitivity", "setting": "[6]; to glucose", "value": "Yes"}]}]}
